Drawing on ChEMBL document CHEMBL1129118, “New heteroaryl-spaced phosphono -amino acids are competitive NMDA antagonists with analgesic activity” (Bioorg Med Chem Lett, 1996), this text covers ED50 and Ki for 22 molecules.

For orientation: ED50 means the dose that gives a 50% effect, or the effect in half of the subjects. Lower therefore signals an effect at a small dose. Usually Ki stands for the dissociation constant of the complex between target and ligand, obtained from inhibition or displacement.

For one experiment, the system named is Mus musculus. As to the kind of experiment: Tested for its analgesic activity in the mouse formalin test (20 umol/kg 1 % formaldehyde injected into a hind paw, licking of the paw scored 15-30 min after formalin injection). The format is functional.
`CCOc1ccc2cc(CP(=O)(O)O)c(C[C@@H](N)C(=O)O)nc2c1` registered a 50% effective dose (ED50) of 150 µmol/kg.

The test system of the next experiment is Mus musculus. As to the kind of experiment: Analgesic activity was evaluated in the mouse formalin test (20 uM/Kg 1% formaldehyde injected into a hind paw, licking of the paw scored 15-30 min after formalin injection). It is filed as functional.
As to `N[C@H](Cc1nc2ccc(Cl)cc2cc1CP(=O)(O)O)C(=O)O`, the 50% effect level (ED50) was put at a dose of 200 µmol/kg.

A further experiment has as its system Mus musculus. As to the kind of experiment: Analgesic activity was evaluated in the mouse formalin test (20 umol/kg 1 % formaldehyde injected into a hind paw, licking of the paw scored 15-30 min after formalin injection). The format is functional.
`N[C@H](Cc1nc2cc(Cl)ccc2cc1CP(=O)(O)O)C(=O)O` gave a 50% effective dose (ED50) of 60 µmol/kg.

Turning to `Cc1cc2cc(CP(=O)(O)O)c(C[C@@H](N)C(=O)O)nc2cc1C`, it took a dose of 42 µmol/kg to reach the 50% effect level (ED50).

Another experiment has as its target Glutamate NMDA receptor. Briefly: Binding affinity to the glutamate site of the NMDA receptor was measured by competitive inhibition of binding of [3H]-CGP- 39653 to rat or porcine cerebral cortex membranes. It is filed as cell membranes, Membrane.
`N[C@H](Cc1nc2ccccc2cc1CP(=O)(O)O)C(=O)O` came in with a Ki of 123 nM. Still for that read-out and setting: to `N[C@H](Cc1nc2cccc(Cl)c2cc1CP(=O)(O)O)C(=O)O` belongs 120 nM. Still for that read-out and setting: to `Cc1ccc2cc(CP(=O)(O)O)c(C[C@@H](N)C(=O)O)nc2c1` belongs 54 nM.

On to `N[C@H](Cc1nc2ccc(F)cc2cc1CP(=O)(O)O)C(=O)O`, for which affinity was put at a Ki of 140 nM. Compared with the last molecule, the Ki is about 2.6-fold higher. With `N[C@H](Cc1nc2ccncc2cc1CP(=O)(O)O)C(=O)O`, the Ki was found to be 722 nM. Same read-out and setting: to `NC(Cc1cc2ccccc2cc1CP(=O)(O)O)C(=O)O` (stereo unspecified) belongs 140 nM. Still for that read-out and setting: to `N[C@H](Cc1nc2ccc(Cl)cc2cc1CP(=O)(O)O)C(=O)O` belongs 57 nM; to `CCc1cc2cc(CP(=O)(O)O)c(C[C@@H](N)C(=O)O)nc2cc1CC`, 4 nM; to `NC(Cc1oc2ccccc2c1CP(=O)(O)O)C(=O)O` (stereo unspecified), 2700 nM.

Molecule `NC(Cc1nc2cc(Cl)c(Cl)cc2nc1CP(=O)(O)O)C(=O)O` (stereo unspecified) displayed an inhibitory constant (Ki) of 3.4 nM. For `N[C@H](Cc1nc2cc(Cl)c(Cl)cc2cc1CP(=O)(O)O)C(=O)O`, the inhibition constant (Ki) came to 5 nM.

The molecule `COc1cc2cc(CP(=O)(O)O)c(C[C@@H](N)C(=O)O)nc2cc1OC` registered a Ki of 950 nM. Still for that read-out and setting: to `CCC/C(=C\C(N)C(=O)O)CP(=O)(O)O` (stereo unspecified) belongs 13 nM. As for `N[C@H](Cc1nc2cc(Cl)c(Cl)cc2n1CP(=O)(O)O)C(=O)O`, the inhibition constant Ki was 18.2 nM. Same read-out and setting: the value for `CCOc1ccc2cc(CP(=O)(O)O)c(C[C@@H](N)C(=O)O)nc2c1` was 29 nM. Consider `Cc1cc2cc(CP(=O)(O)O)c(C[C@H](N)C(=O)O)nc2cc1C`, for which the affinity, expressed as Ki, was 430 nM. Turning to `Cc1cc2cc(CP(=O)(O)O)c(C[C@@H](N)C(=O)O)nc2cc1Cl`, the affinity, expressed as Ki, was 4 nM. On the same count and under the same terms, the value for `N[C@H](Cc1nc2cc(Cl)ccc2cc1CP(=O)(O)O)C(=O)O` was 20 nM. `Cc1cc2cc(CP(=O)(O)O)c(C[C@@H](N)C(=O)O)nc2cc1C` gave a Ki of 5 nM.

In turn, `N[C@H](Cc1nc2c(Cl)cc(Cl)cc2cc1CP(=O)(O)O)C(=O)O` had a Ki of 29 nM. `N[C@H](Cc1nc2ncccc2cc1CP(=O)(O)O)C(=O)O` gave a Ki of 74 nM. Turning to `O=C(O)[C@@H]1C[C@H](CP(=O)(O)O)CCN1` (relative stereo) [SELFOTEL], the Ki stood at 29 nM.
